Laboratory results published in patent US20030148377A1, “Binding compounds and methods for identifying binding compounds” (priority 2000, published 2003).

How the values were obtained:
Format in all cases: cell-based
[1] = test system: human IL-2 promoter luciferase reporter in Jurkat cells; assay: IL-2 reporter gene analysis, anti-CD3ε mAb plus PMA (ZAP-70-dependent pathway); conditions: 10 μM peptide; anti-CD3 plus phorbol ester as stimulant, 2 hr; FIG. 2F
Experimental: (§1) Penetratin-containing peptides (FIG. 2A; peptide 7 (SEQ ID NO: 11) or peptide 8 (SEQ ID NO: 12)) were dissolved in DMSO and diluted to 20 μM in 500 μl of serum-free RPMI1640 medium. Ten million Jurkat cells, suspended in 500 μl of serum-free RPMI1640, were added to the peptide solutions for diluted DMSO control and incubated for 30 min at 37° C. Peptide-pretreated cells were treated with 1 μg of the anti-CD3ε mAb at 4° C. for 10 min, followed by another 10 min incubation in the presence of 5 μg of rabbit anti-mouse Ig. Cells were activated by shifting the temperature to 37° C. for 2 min and subsequently lysed in 1% NP40 lysis buffer. […] Luciferase activities from lysates were measured using a Dual-Luciferase Reporter System and Monolight 2010 luminometer.
(§2) Jurkat cells were electroporated at 250V, 800 μF settings (Invitrogen Life Technologies, Carlsbad, Calif.), in the presence of 10 μg of plasmid carrier DNA (pCAGGS vector), 100 ng of Renilla luciferase control vector (pRL null), and 2.5 μg of a luciferase reporter gene whose transcriptional activity is controlled by the human IL-2 promoter (IL-2-Luc). […] Luciferase activities from lysates were measured using a Dual-Luciferase Reporter System (Promega, Madison, Wis.) and Monolight 2010 luminometer (Analytical Luminescence Laboratory, San Diego, Calif.). […]

[2] = test system: human IL-2 promoter luciferase reporter in Jurkat cells; assay: IL-2 reporter gene analysis, PMA plus ionomycin (pathway that circumvents ZAP-70); conditions: 10 μM peptide; phorbol ester plus ionomycin; FIG. 2G
Experimental: as §1, §2

[3] = test system: Tyr phosphorylation of PLCγ1 or LAT in Jurkat cells; assay: Anti-CD3-dependent Tyr phosphorylation of PLCγ1 or LAT in Jurkat cells; conditions: CD3ε cross-linking
Experimental: Penetratin-containing peptides (FIG. 2A; peptide 7 (SEQ ID NO: 11) or peptide 8 (SEQ ID NO: 12)) were dissolved in DMSO and diluted to 20 μM in 500 μl of serum-free RPMI1640 medium. Ten million Jurkat cells, suspended in 500 μl of serum-free RPMI1640, were added to the peptide solutions for diluted DMSO control and incubated for 30 min at 37° C. Peptide-pretreated cells were treated with 1 μg of the anti-CD3ε mAb at 4° C. for 10 min, followed by another 10 min incubation in the presence of 5 μg of rabbit anti-mouse Ig. Cells were activated by shifting the temperature to 37° C. for 2 min and subsequently lysed in 1% NP40 lysis buffer. Lysates were immunoprecipitated with either the 4G10 anti-phosphotyrosine mAb (FIG. 2B; lanes 1-5), or with anti-PLCγ1 antibody (FIG. 2B; lanes 6-10), or with anti-LAT antibody (FIG. 2D; lane 11-15), and immunoblotted with the HRP-conjugated anti-phosphotyrosine Ab, RC20H. Lanes 1, 2, 6, 7, 11 and 12 corresponded to untreated Jurkat cells; lysates in lanes 3, 8, and 13 were prepared from cells treated with DMSO; lysates in lanes 4, 9, and 14 were prepared from cells treated with peptide 7; lysates in lanes 5, 10, and 15 were prepared from cells treated with peptide 8. (−) indicates nonstimulated cells; (+) indicates stimulation by CD3ε cross-linking. Each blot was stripped and reprobed with anti-PLCγ1 antibody (FIG. 2C) or anti-LAT antibody (FIG. 2E). Jurkat cells were electroporated in the presence of 10 μg of plasmid carrier DNA, 100 ng of Renilla luciferase control vector, and 2.5 μg of a luciferase reporter gene. Transfectants were treated with 10 μM of peptide 7, peptide 8, or DMSO as described above. Treated cells were stimulated with plate-bound anti-CD3ε mAb and 10 ng/ml of PMA (phorbol 12-myristate-13-acetate; FIG. 2F), or 10 ng/ml of PMA plus 2 μM of ionomycin (FIG. 2G) at 37° C. for 2 hr. Luciferase activities from lysates were measured using a Dual-Luciferase Reporter System and Monolight 2010 luminometer. […]

Substance: peptide 8: chimeric peptide with penetratin at the N terminus and peptide 4 at the C terminus (RQIKIWFQNRRMKWKKKLILFLLLL)
- inhibition of gene expression (IL-2 reporter) [1]: more than 70%
- effect on IL-2 reporter gene expression (in words) [2]: no effect on gene expression
- effect on anti-CD3-stimulated Tyr-phosphorylation of most proteins (in words) ([3]; 30 min peptide pretreatment at 37° C., anti-phosphotyrosine blot, FIG. 2B): little effect on most of these proteins
- Tyr phosphorylation of LAT (in words) ([3]; anti-LAT immunoprecipitates, FIG. 2D lane 15): reduced the Tyr phosphorylation
- Tyr phosphorylation of PLCγ1 (in words) ([3]; anti-PLCγ1 immunoprecipitates, FIG. 2B lane 10): reduced the Tyr phosphorylation of PLCγ1
